For 17 compounds, IC50 results are on record in patent US20250136553A1, “ACYLSULFONAMIDE KAT6A INHIBITORS” (Olema Pharmaceuticals, Inc., priority 2023, published 2025).

human-KAT6A (MYST domain 507-778 aa), sequence (Q92794 507-778): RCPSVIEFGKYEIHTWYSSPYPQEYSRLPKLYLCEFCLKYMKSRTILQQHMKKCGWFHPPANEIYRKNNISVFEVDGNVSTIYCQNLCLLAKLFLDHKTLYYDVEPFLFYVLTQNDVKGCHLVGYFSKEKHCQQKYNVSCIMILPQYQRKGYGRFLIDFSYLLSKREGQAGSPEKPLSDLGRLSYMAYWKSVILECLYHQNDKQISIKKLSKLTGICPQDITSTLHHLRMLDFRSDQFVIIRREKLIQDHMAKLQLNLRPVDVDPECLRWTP

This experiment addresses human-KAT6A (MYST domain 507-778 aa) (Homo sapiens (Human), UniProt Q92794). Put plainly: KAT6A biochemical assay (TR-FRET). The following applies: TR-FRET; histone H4 peptide 200 nM, acetyl-CoA 600 nM; read-out: KAT6A IC50. Summed up:
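KAT6A MYST domain preincubated with compound 30 min at 25° C, then reacted 60 min at 25° C with 200 nM biotin-H4 peptide and 600 nM acetyl-CoA (final). Europium anti-acetyl-lysine/streptavidin-APC TR-FRET read (Ex 340, Em 615/665 nm); % inhibition from 665/615 ratio, IC50 by sigmoidal fit.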
For the compound `COc1cc(C(=O)N[S@](=N)(=O)c2cc(C(C)(C)CO)ccc2OC)ccc1Cn1cccn1` [Compound 291b, (S)-4-((1H-pyrazol-1-yl)methyl)-N-(5-(1-hydroxy-2-methylpropan-2-yl)-2-methoxyphenylsulfonimidoyl)-3-methoxybenzamide], the IC50 is 9 nM.
For `COc1cc(C(=O)NS(=O)(=O)c2ccccc2OC2CC2)ccc1Cn1cccn1` [Compound 313, 4-((1H-pyrazol-1-yl)methyl)-N-((2-cyclopropoxyphenyl)sulfonyl)-3-methoxybenzamide] the value was 32 nM; for `COc1cc(OC)c(S(=O)(=O)NC(=O)c2ccc(Cn3cccn3)c(OC)n2)cc1Cl` [Compound 238, 5-((1H-pyrazol-1-yl)methyl)-N-((5-chloro-2,4-dimethoxyphenyl)sulfonyl)-6-methoxypicolinamide], 37 nM; for `COc1cc(C(=O)NS(=O)(=O)c2ccccc2OCc2ccccn2)ccc1Cn1cccn1` [Compound 53, 4-((1H-pyrazol-1-yl)methyl)-3-methoxy-N-((2-(pyridin-2-ylmethoxy)phenyl)sulfonyl)benzamide], 31 nM.
With `COc1cccc(OC(F)F)c1S(=O)(=O)NC(=O)c1ccc(Cn2cccn2)c(OC)n1` [Compound 220, 5-((1H-pyrazol-1-yl)methyl)-N-((2-(difluoromethoxy)-6-methoxyphenyl)sulfonyl)-6-methoxypicolinamide], the IC50 stood at 7 nM.
For `COc1cc(F)cc(OC)c1S(=O)(=O)NC(=O)c1ccc(Cn2cccn2)c(OC)n1` [Compound 282, 5-((1H-pyrazol-1-yl)methyl)-N-((4-fluoro-2,6-dimethoxyphenyl)sulfonyl)-6-methoxypicolinamide] the value was 14 nM; for `COc1cc(OC)c([S@@](=N)(=O)NC(=O)c2ccc(Cn3cccn3)c(OC)n2)c(OC)c1` [Compound 296b, (S)-5-((1H-pyrazol-1-yl)methyl)-6-methoxy-N-(2,4,6-trimethoxyphenylsulfonimidoyl)picolinamide], 677 nM; for `COc1cccc(OC)c1[S@](=N)(=O)NC(=O)c1ccc(Cn2cccn2)c(OC(F)(F)F)c1` [Compound 300a, (R)-4-((1H-pyrazol-1-yl)methyl)-N-(2,6-dimethoxyphenylsulfonimidoyl)-3-(trifluoromethoxy)benzamide], 125 nM.
For `COc1ccc(C(C)(C)C)cc1S(=O)(=O)NC(=O)c1ccc(Cn2cccn2)cc1F` [Compound 7, 4-((1H-pyrazol-1-yl)methyl)-N-((5-(tert-butyl)-2-methoxyphenyl)sulfonyl)-2-fluorobenzamide] the value was 99 nM; for `COc1cc2c(cc1S(=O)(=O)NC(=O)c1ccc(Cn3cccn3)c(OC)n1)CCC2` [Compound 213, 5-((1H-pyrazol-1-yl)methyl)-6-methoxy-N-((6-methoxy-2,3-dihydro-1H-inden-5-yl)sulfonyl)picolinamide], 12 nM.
For `CCc1c(OC)cc(OC)c(S(=O)(=O)NC(=O)c2ccc(Cn3cccn3)c(OC)n2)c1OC` [Compound 268, 5-((1H-Pyrazol-1-yl)methyl)-N-((3-ethyl-2,4,6-trimethoxyphenyl)sulfonyl)-6-methoxypicolinamide] the value was 16 nM.
For `COc1cc(C(=O)NS(=O)(=O)c2cccc(O)c2)ccc1Cn1cccn1` [Compound 23, 4-((1H-pyrazol-1-yl)methyl)-N-((3-hydroxyphenyl)sulfonyl)-3-methoxybenzamide], the IC50 was determined as 32 nM.
For `CCc1ccc(OC)c(S(=O)(=O)NC(=O)c2ccc(Cn3cccn3)c(OC)n2)c1` [Compound 204, 5-((1H-pyrazol-1-yl)methyl)-N-((5-ethyl-2-methoxyphenyl)sulfonyl)-6-methoxypicolinamide], the IC50 came out at 6 nM.
Consider `COc1cc(Br)cc(OC)c1S(=O)(=O)NC(=O)c1ccc(Cn2cccn2)c(OC)n1` [Compound 285, 5-((1H-pyrazol-1-yl)methyl)-N-((4-bromo-2,6-dimethoxyphenyl)sulfonyl)-6-methoxypicolinamide], for which the IC50 stood at 6 nM.
Take `COc1cc(C(=O)NS(=O)(=O)c2c(OC)ccc(Cl)c2OC)ccc1Cn1cccn1` [Compound 46, 4-((1H-pyrazol-1-yl)methyl)-N-((3-chloro-2,6-dimethoxyphenyl)sulfonyl)-3-methoxybenzamide]: the IC50 was found to be 12 nM.
For `COc1cccc(OC2CCC2)c1[S@@](=N)(=O)NC(=O)c1ccc(Cn2cccn2)c(OC)n1` [Compound 298b, (S)-5-((1H-pyrazol-1-yl)methyl)-N-(2-cyclobutoxy-6-methoxyphenylsulfonimidoyl)-6-methoxypicolinamide] the value was 511 nM; for `COc1cc(C(=O)NS(=O)(=O)c2cc(Cl)cc3c2OCC3)ccc1Cn1cccn1` [Compound 309, 4-((1H-pyrazol-1-yl)methyl)-N-((5-chloro-2,3-dihydrobenzofuran-7-yl)sulfonyl)-3-methoxybenzamide], 17 nM.
